Data as given in ChEMBL document CHEMBL3352495, “Discovery of the 1,7-diazacarbazole class of inhibitors of checkpoint kinase 1” (Bioorg Med Chem Lett, 2014).

Experiments:
Assay type in all cases: ADME, organism-based
[1] = AUC in NCR mouse at 25 mg/kg, po administered as suspension; design: dose 25 mg/kg, route oral; conditions: plasma
Mus musculus [2] = test: Dose normalized AUC in NCR mouse at 25 mg/kg, po administered as solution; design: dose 25 mg/kg, route oral; conditions: in vivo
[3] = Cmax in CD1 mouse at 5 mg/kg, po administered as suspension; design: dose 5 mg/kg, route oral; conditions: in vivo
[4] = Oral bioavailability in CD1 mouse at 5 mg/kg administered as solution; conditions: in vivo
[5] = Cmax in Sprague-Dawley rat at 5 mg/kg, po administered as solution; design: dose 5 mg/kg, route oral; conditions: in vivo
[6] = Oral bioavailability in NCR mouse at 25 mg/kg administered as solution; conditions: in vivo
[7] = Half life in NCR mouse at 25 mg/kg, po administered as solution; design: dose 25 mg/kg, route oral; conditions: in vivo
[8] = AUC in CD1 mouse at 0.5 mg/kg, iv; design: dose 0.5 mg/kg, route intravenous; conditions: plasma
[9] = Oral bioavailability in Sprague-Dawley rat at 5 mg/kg administered as solution; conditions: in vivo
[10] = Half life in Sprague-Dawley rat at 5 mg/kg, po administered as solution; design: dose 5 mg/kg, route oral; conditions: in vivo
Mus musculus [11] = test: Dose normalized AUC in CD1 mouse at 5 mg/kg, po administered as suspension; design: dose 5 mg/kg, route oral; conditions: in vivo
[12] = AUC in Sprague-Dawley rat at 1 mg/kg, iv; design: dose 1 mg/kg, route intravenous; conditions: plasma
[13] = Cmax in NCR mouse at 25 mg/kg, po administered as suspension; design: dose 25 mg/kg, route oral; conditions: in vivo
[14] = Oral bioavailability in CD1 mouse at 5 mg/kg administered as suspension; conditions: in vivo
Mus musculus [15] = test: Dose normalized AUC in CD1 mouse at 5 mg/kg, po administered as solution; design: dose 5 mg/kg, route oral; conditions: in vivo
[16] = Half life in Sprague-Dawley rat at 1 mg/kg, iv; design: dose 1 mg/kg, route intravenous; conditions: in vivo
[17] = Half life in CD1 mouse at 5 mg/kg, po administered as suspension; design: dose 5 mg/kg, route oral; conditions: in vivo
[18] = AUC in CD1 mouse at 5 mg/kg, po administered as solution; design: dose 5 mg/kg, route oral; conditions: plasma
[19] = Clearance in CD1 mouse at 0.5 mg/kg, iv; design: dose 0.5 mg/kg, route intravenous; conditions: in vivo
[20] = Half life in CD1 mouse at 5 mg/kg, po administered as solution; design: dose 5 mg/kg, route oral; conditions: in vivo
[21] = AUC in NCR mouse at 25 mg/kg, po administered as solution; design: dose 25 mg/kg, route oral; conditions: plasma
[22] = Half life in NCR mouse at 25 mg/kg, po administered as suspension; design: dose 25 mg/kg, route oral; conditions: in vivo
[23] = AUC in Sprague-Dawley rat at 5 mg/kg, po administered as solution; design: dose 5 mg/kg, route oral; conditions: plasma
Rattus norvegicus [24] = test: Dose normalized AUC in Sprague-Dawley rat at 1 mg/kg, iv; design: dose 1 mg/kg, route intravenous; conditions: in vivo
[25] = Oral bioavailability in NCR mouse at 25 mg/kg administered as suspension; conditions: in vivo
[26] = Cmax in NCR mouse at 25 mg/kg, po administered as solution; design: dose 25 mg/kg, route oral; conditions: in vivo
[27] = Clearance in Sprague-Dawley rat at 1 mg/kg, iv; design: dose 1 mg/kg, route intravenous; conditions: in vivo
[28] = Half life in CD1 mouse at 0.5 mg/kg, iv; design: dose 0.5 mg/kg, route intravenous; conditions: in vivo
Mus musculus [29] = test: Dose normalized AUC in NCR mouse at 25 mg/kg, po administered as suspension; design: dose 25 mg/kg, route oral; conditions: in vivo
Mus musculus [30] = test: Dose normalized AUC in CD1 mouse at 0.5 mg/kg, iv; design: dose 0.5 mg/kg, route intravenous; conditions: in vivo
[31] = Cmax in CD1 mouse at 5 mg/kg, po administered as solution; design: dose 5 mg/kg, route oral; conditions: in vivo
Rattus norvegicus [32] = test: Dose normalized AUC in Sprague-Dawley rat at 5 mg/kg, po administered as solution; design: dose 5 mg/kg, route oral; conditions: in vivo
[33] = AUC in CD1 mouse at 5 mg/kg, po administered as suspension; design: dose 5 mg/kg, route oral; conditions: plasma

CN1CCN(c2ccc(-c3cnc4[nH]c5cnc(C#N)cc5c4c3)cc2)CC1
AUC [1]: 9.37 µM·h | AUC/dose (Mus musculus [2]): 0.13 kg·h/L | Cmax [3]: 200 nM | bioavailability [4]: 54% | Cmax [5]: 930 nM | bioavailability [6]: 50% | half-life [7]: 2.1 h | AUC [8]: 0.34 µM·h | bioavailability [9]: 62% | half-life [10]: 2.3 h | AUC/dose (Mus musculus [11]): 0.13 kg·h/L | AUC [12]: 1.81 µM·h | Cmax [13]: 910 nM | bioavailability [14]: 50% | AUC/dose (Mus musculus [15]): 0.14 kg·h/L | half-life [16]: 1.8 h | half-life [17]: 2.9 h | AUC [18]: 1.85 µM·h | clearance [19]: 67 mL/min/kg | half-life [20]: 1.6 h | AUC [21]: 8.46 µM·h | half-life [22]: 4 h | AUC [23]: 5.64 µM·h | AUC/dose (Rattus norvegicus [24]): 0.67 kg·h/L | bioavailability [25]: 55% | Cmax [26]: 2510 nM | clearance [27]: 27 mL/min/kg | half-life [28]: 5.8 h | AUC/dose (Mus musculus [29]): 0.14 kg·h/L | AUC/dose (Mus musculus [30]): 0.25 kg·h/L | Cmax [31]: 450 nM | AUC/dose (Rattus norvegicus [32]): 0.42 kg·h/L | AUC [33]: 1.72 µM·h
